The values that follow come from patent US20240294499A1, “TARGETED PROTEIN DEGRADATION USING BIFUNCTIONAL COMPOUNDS THAT BIND UBIQUITIN LIGASE AND TARGET MCL-1 PROTEIN” (Captor Therapeutics S.A., priority 2021, published 2024).

Series [1] deals with [MCL-1]-[compound of formula (I)]-[CRBN/DDB1] complex (Homo sapiens, UniProt Q07820+Q96SW2). Kind of series: AlphaLISA dose response ternary complex formation assay. The class given is binding. Conditions: read-out: AlphaLISA dose response Average pEC50 by molecule (converted). Put shortly: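 EC50 comes from dose–response of AlphaLISA luminescence (excitation 680, emission 615 nm), normalised between DMSO background and an internal positive control, with concentrations past the hook point dropped. Ternary complex formed by mixing bead-bound biotin-hMCL-1 and His-CRBN/DDB1 (protein solutions 40 and 200 nM) with compound in 2% DMSO, 30 min, 25 °C.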

The test system of series [2] is MV-4-11 cells. Kind of series: Cell viability assay (CellTiter-Glo), MV-4-11. The class given is cell-based. Conditions: Homo sapiens, MV4-11, 24 hours incubation, 1% FBS, read-out: Average pIC50 by molecule MV-4-11 (converted). Put shortly:
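Luminescent ATP readout (CellTiter-Glo) at 24 hours measured viability, expressed relative to DMSO-treated wells. Compound was added directly to the medium as a 9–12-point threefold series starting at 30 uM, at 0.5% final DMSO. The medium contained FBS reduced to 1%.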

For series [3], the system named is MV-4-11 cells. In words: Mitochondrial potential changes in cancer cells, flow cytometry (TMRE). Format: cell-based. Conditions: 5 hours. As for the experimental part: The effect of compounds 220 and 268 of the invention in MV-4-11 cells was investigated using the following protocol.
MV-4-11 cells were seeded on 384-well plates (0.05 ml) in growth medium containing 1% FBS and 50 nM tetramethylrhodamine ethyl ester (TMRE). Immediately after seeding, compounds in appropriate concentrations were added directly to the cell culture medium. After 5 hours incubation, cells were analyzed by flow cytometry (LSR Fortessa X-20; BD Biosciences). Results were evaluated using FlowJo (V10) software.
FIG. 7 presents the effect of the compound in the mitochondrial potential of MV-4-11 cells treated with 220 for 5 hours. Compound concentration is specified in the top-left corner of each histogram; Dimethyl sulfoxide (DMSO) was used as vehicle control. Population of interest and the percentage of cells included are highlighted with a red bar and shown in bold red ink, respectively.
FIG. 8 presents the concentration dependent decrease (compared to DMSO control) of the population of cells with normal polarized mitochondria after treatment of MV-4-11 cells with the compounds 220 and 268 for 5 hours.

Series [4] has as its system hiPSC-CM (iCELL Cardiomyocytes). In words: Cardiac safety: hiPSC-CM cell viability assay (CTG). The class given is cell-based, human. Conditions: for IC50: Homo sapiens, Cardiomyocyte, 336 h, viability, CTG assay, treatment until day 14, read-out: Average pIC50 by molecule hiPSC-CM (converted); for activity in viability assay in cardiomyocytes: as opposed to reference compounds MIK665 and AZD5991. The source says: The effect of various compounds of the invention and a reference compounds AZD5991 and MIK665 on cardiac safety was investigated by the evaluation of viability with CTG assay (Promega; cat #G7572) in iCELL™ Cardiomyocytes from FUJIFILM Cellular Dynamics (Catalog number: 11713).
Cells were thawed, counted using an automated cell counter (TC20, Bio-Rad) and seeded in 96 well plates (Greiner-BioOne; 655098) previously coated with 0.1% gelatin (Sigma-Aldrich; G1890) using Plating Medium (#M1001) following the instructions of the iCELL cardiomyocytes User Guide. Forty ml of Plating Medium was used to equally distribute the cells in four 96 well plates. Cells were then placed in the incubator at 37° C., 5% CO2 and left undisturbed for 48 hours. Compounds were serially diluted in DMSO and then further diluted to final assay concentration using maintenance medium (#M1003). Final DMSO concentration was 0.5%. Forty eight hours after plating, non-adherent cells and debris were washed as described in the User Guide. Plating medium was then replaced with maintenance medium containing diluted compounds or DMSO (as control). Medium was then changed every 2 days with fresh medium containing compounds or DMSO until the end of the treatment. On day 14, only medium without compounds was used immediately before the CTG assay. Luminescence signal was measured using a CLARIOstar Plus Multi-Mode Microplate Reader (574-590 nm).

Chain of [MCL-1]-[compound of formula (I)]-[CRBN/DDB1] complex (Q07820 whole entry): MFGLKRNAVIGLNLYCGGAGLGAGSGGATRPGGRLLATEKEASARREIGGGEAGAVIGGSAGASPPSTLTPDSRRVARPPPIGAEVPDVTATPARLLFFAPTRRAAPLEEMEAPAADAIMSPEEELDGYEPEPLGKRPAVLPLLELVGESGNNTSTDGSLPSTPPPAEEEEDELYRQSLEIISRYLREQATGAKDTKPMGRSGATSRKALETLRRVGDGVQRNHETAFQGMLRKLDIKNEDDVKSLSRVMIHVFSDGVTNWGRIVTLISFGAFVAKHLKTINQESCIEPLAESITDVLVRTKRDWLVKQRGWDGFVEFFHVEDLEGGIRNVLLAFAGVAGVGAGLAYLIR
Chain of [MCL-1]-[compound of formula (I)]-[CRBN/DDB1] complex (Q96SW2 whole entry): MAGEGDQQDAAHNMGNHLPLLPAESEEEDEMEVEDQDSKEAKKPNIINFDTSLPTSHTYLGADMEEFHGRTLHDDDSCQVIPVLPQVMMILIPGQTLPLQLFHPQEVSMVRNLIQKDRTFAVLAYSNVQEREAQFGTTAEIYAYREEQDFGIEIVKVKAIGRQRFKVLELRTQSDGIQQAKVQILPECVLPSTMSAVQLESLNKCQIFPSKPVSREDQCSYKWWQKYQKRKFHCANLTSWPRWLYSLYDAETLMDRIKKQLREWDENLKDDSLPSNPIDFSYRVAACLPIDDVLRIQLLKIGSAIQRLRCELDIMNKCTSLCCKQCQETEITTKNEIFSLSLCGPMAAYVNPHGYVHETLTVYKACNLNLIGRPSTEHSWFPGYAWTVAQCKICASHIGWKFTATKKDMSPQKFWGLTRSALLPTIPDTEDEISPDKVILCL
Chain of [MCL-1]-[compound of formula (I)]-[CRBN/DDB1] complex (Q16531 whole entry partner): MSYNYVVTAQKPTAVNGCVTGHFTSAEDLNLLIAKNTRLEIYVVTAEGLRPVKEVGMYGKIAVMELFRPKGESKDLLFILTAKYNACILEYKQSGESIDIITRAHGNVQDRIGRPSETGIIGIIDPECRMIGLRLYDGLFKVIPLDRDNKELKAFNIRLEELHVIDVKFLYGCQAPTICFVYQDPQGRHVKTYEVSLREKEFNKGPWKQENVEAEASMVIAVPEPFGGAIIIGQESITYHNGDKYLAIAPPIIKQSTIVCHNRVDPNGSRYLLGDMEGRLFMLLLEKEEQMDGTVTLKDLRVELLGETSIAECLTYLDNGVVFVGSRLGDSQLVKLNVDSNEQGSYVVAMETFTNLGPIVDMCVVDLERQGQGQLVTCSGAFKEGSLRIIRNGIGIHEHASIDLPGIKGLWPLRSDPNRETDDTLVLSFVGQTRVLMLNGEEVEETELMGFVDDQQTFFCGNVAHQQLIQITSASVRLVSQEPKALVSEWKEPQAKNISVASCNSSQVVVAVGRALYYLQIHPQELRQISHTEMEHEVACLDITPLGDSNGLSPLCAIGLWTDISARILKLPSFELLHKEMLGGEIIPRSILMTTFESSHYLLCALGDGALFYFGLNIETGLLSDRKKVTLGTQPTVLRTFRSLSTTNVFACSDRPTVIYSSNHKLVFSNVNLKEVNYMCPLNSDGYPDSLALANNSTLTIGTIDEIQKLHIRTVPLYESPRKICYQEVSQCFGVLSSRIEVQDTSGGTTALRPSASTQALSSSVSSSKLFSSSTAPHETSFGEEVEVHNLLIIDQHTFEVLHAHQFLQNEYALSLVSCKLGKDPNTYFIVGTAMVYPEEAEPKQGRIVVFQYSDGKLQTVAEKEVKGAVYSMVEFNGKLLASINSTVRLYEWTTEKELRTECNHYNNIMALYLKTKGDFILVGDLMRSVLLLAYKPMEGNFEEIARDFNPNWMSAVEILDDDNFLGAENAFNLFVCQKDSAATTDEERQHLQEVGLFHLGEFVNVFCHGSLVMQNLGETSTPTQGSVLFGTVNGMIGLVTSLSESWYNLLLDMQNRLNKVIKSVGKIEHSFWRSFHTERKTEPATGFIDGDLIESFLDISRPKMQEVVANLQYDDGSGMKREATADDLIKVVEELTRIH

As for `Cc1nn(C)c(C)c1-c1c(Cl)ccc2c(CCCOc3cccc4ccccc34)c(C(=O)O)n(CCN3CCN(C(=O)COc4cccc5c4C(=O)N(C4CCC(=O)NC4=O)C5=O)CC3)c12` (stereo not shown) [Compound 204, 6-chloro-1-(2-(4-(2-((2-(2,6-dioxopiperidin-3-yl)-1,3-dioxoisoindolin-4-yl)oxy)acetyl)piperazin-1-yl)ethyl)-3-(3-(naphthalen-1-yloxy)propyl)-7-(1,3,5-trimethyl-1H-pyrazol-4-yl)-1H-indole-2-carboxylic acid], the EC50 in series [1] is under 100 nM. Moreover, the IC50 in the series on MV-4-11 cells [2] is at most 100 nM.
The matching figures for `Cc1nn(C)c(C)c1-c1c(F)ccc2c(CCCOc3cccc4cc(F)ccc34)c(C(=O)O)n(CCN3CCN(C(=O)COc4cccc5c4C(=O)N(C4CCC(=O)NC4=O)C5=O)CC3)c12` (stereo not shown) [Compound 215, 1-{2-[4-(2-{[2-(2,6-dioxopiperidin-3-yl)-1,3-dioxo-2,3-dihydro-1H-isoindol-4-yl]oxy}acetyl)piperazin-1-yl]ethyl}-6-fluoro-3-{3-[(6-fluoronaphthalen-1-yl)oxy]propyl}-7-(1,3,5-trimethyl-1H-pyrazol-4-yl)-1H-indole-2-carboxylic acid]: under 100 nM and at most 100 nM.
`Cc1nn(C)c(C)c1-c1c(Cl)ccc2c(CCCOc3cccc4cc(F)ccc34)c(C(=O)O)n(CCN3CCN(C(=O)COc4cccc5c4CN(C4CCC(=O)NC4=O)C5=O)CC3)c12` (stereo not shown) [Compound 220, 6-chloro-1-{2-[4-(2-{[2-(2,6-dioxopiperidin-3-yl)-1-oxo-2,3-dihydro-1H-isoindol-4-yl]oxy}acetyl)piperazin-1-yl]ethyl}-3-{3-[(6-fluoronaphthalen-1-yl)oxy]propyl}-7-(1,3,5-trimethyl-1H-pyrazol-4-yl)-1H-indole-2-carboxylic acid]: the EC50 in series [1] is under 100 nM. Further, the “mitochondrial potential (population of cells with normal polarized mitochondria)” value with MV-4-11 cells [3] was “concentration dependent depolarization of mitochondria”. For the same compound, in series [4], the IC50 is 10000 nM and the “activity in viability assay in cardiomyocytes” value (“activity in viability assay” for short) is reported as “much lower activity”. Moreover, in the series on MV-4-11 cells [2], the IC50 was at most 31.6 nM.
As for `Cc1nn(C)c(C)c1-c1c(Cl)ccc2c(CCCOc3cccc4cc(F)ccc34)c(C(=O)O)n(CCN3CCN(C(=O)Cn4c(C)nc5c(C(=O)NC6CCC(=O)NC6=O)cccc54)CC3)c12` (stereo not shown) [Compound 268, 6-chloro-1-{2-[4-(2-{4-[(2,6-dioxopiperidin-3-yl)carbamoyl]-2-methyl-1H-1,3-benzodiazol-1-yl}acetyl)piperazin-1-yl]ethyl}-3-{3-[(6-fluoronaphthalen-1-yl)oxy]propyl}-7-(1,3,5-trimethyl-1H-pyrazol-4-yl)-1H-indole-2-carboxylic acid], in the series with MV-4-11 cells [3], the “mitochondrial potential (population of cells with normal polarized mitochondria)” value is “concentration dependent depolarization of mitochondria”. For the same compound, in series [4], the IC50 is over 39800 nM and the “activity in viability assay” value is given as “much lower activity”.
For the compound `Cc1nn2c(c1-c1c(Cl)ccc3c(CCCOc4cccc5cc(F)ccc45)c(C(=O)O)n(CCN4CCN(C(=O)COc5cccc6c5CN(C5CCC(=O)NC5=O)C6=O)CC4)c13)COCC2` (stereo not shown) [Compound 346, 6-Chloro-1-(2-(4-(2-((2-(2,6-dioxopiperidin-3-yl)-1-oxoisoindolin-4-yl)oxy)acetyl)piperazin-1-yl)ethyl)-3-(3-((6-fluoronaphthalen-1-yl)oxy)propyl)-7-(2-methyl-6,7-dihydro-4H-pyrazolo[5,1-c][1,4]oxazin-3-yl)-1H-indole-2-carboxylic acid], the EC50 in series [1] was under 100 nM. In series [4], the IC50 is 10000 nM and the “activity in viability assay” value was “much lower activity”. In addition, in the series with MV-4-11 cells [2], the IC50 was at most 100 nM.
